In PubChem BioAssay AID1645862 (Buhrlage Lab, Dana-Farber Cancer Institute and Novartis …, 2021):
pIC50: −log10 of the molar value. Activity calls are given as the source filed them. The rule behind the calls is not given here. Bridge positions count the residues as written; N and C are the ends. Peptide text beside a SMILES is read from it. * marks the point of attachment. ξ: configuration not given here. Pentadecanoyl(3ξ-OH,15-Gua) = N=C(N)NCCCCCCCCCCCCC(O)CC(=O)*

Target: Ubiquitin carboxyl-terminal hydrolase 8 (Homo sapiens) (UniProt P40818)
Sequence (P40818 whole entry, looked up): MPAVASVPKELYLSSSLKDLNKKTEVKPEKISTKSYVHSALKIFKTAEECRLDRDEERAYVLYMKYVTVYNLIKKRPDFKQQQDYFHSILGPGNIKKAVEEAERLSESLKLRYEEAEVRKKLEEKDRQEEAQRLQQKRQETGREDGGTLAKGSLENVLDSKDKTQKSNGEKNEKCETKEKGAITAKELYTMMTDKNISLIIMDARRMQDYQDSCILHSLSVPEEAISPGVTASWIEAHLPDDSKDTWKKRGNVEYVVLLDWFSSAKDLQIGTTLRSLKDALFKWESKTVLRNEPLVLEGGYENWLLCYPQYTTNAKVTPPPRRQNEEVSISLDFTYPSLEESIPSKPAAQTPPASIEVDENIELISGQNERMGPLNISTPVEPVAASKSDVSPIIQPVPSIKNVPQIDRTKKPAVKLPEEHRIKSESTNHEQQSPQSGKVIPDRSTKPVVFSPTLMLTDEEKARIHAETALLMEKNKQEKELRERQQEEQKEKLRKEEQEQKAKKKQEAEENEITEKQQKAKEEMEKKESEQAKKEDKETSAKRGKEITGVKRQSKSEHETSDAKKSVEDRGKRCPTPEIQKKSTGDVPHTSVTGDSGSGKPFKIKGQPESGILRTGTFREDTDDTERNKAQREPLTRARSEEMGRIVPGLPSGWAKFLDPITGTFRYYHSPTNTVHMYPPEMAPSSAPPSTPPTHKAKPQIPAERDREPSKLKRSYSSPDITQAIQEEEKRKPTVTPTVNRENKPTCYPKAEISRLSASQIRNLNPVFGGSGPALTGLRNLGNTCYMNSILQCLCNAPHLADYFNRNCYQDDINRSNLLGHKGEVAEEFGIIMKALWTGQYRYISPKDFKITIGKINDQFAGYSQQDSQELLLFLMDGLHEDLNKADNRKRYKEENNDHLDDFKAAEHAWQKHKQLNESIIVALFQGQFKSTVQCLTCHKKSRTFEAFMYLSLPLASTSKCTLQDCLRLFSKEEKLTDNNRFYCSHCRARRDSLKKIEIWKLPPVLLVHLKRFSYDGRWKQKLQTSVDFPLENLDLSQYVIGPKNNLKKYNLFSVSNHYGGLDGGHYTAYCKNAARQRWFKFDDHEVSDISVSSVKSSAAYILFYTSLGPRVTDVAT
Assay: Ubiquitin-specific protease 8 inhibitors, concentration-effect, biochemical, validation of initial actives (AID 1645862);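 note: potency reflects inhibition of USP8 cleavage of a ubiquitin rhodamine substrate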
Conditions: recombinant USP8 deubiquitinase activity assay

SMILES | IC50 | pIC50
CCOc1ccccc1-c1cc(NC(=O)c2cc3ccc4cccnc4c3[nH]2)on1 | > 40 µM (inactive) | 
N#Cc1cc(C(=O)c2cc(Cl)ccc2O)cn(-c2ccccn2)c1=O | > 40 µM (inactive) | 
COc1ccc(CCNC(=O)CSc2cn(CCNC(=O)c3ccccc3C)c3ccccc23)cc1OC | > 40 µM (inactive) | 
CC(=O)N1CCc2cc(S(=O)(=O)NC(Cc3ccccc3)C(=O)Nc3cccc(Cl)c3C)ccc21 (stereo not drawn) | > 40 µM (inactive) | 
COc1cc2c(oc(=O)c3cc(C)cc(OC)c32)c2c([C@@H]3OC(C)[C@@H](O)[C@@](C)(O)C3O)ccc(O)c12 (stereo partly drawn) | > 40 µM (inactive) | 
Cc1ccc2c(c1)N=C(c1ccc([N+](=O)[O-])cc1)CO2 | > 40 µM (inactive) | 
CC(Nc1nnc(Cc2ccccc2)c(=O)[nH]1)c1ccccc1 (stereo not drawn) | > 40 µM (inactive) | 
Nc1c(-c2nc(-c3ccccc3Cl)no2)nnn1-c1ccc(Cl)cc1 |  | 5.32
COc1ccc(NC(=O)c2[nH]nc3c2COc2ccccc2-3)c(OC)c1 | > 40 µM (inactive) | 
Cc1c(C)n(-c2ccccc2)c2ncn(CC(=O)NCc3cccc(F)c3)c(=O)c12 | > 40 µM (inactive) | 
CCCC[C@@H](C)/C=C(C)/C=C(\C)C(=O)NC1=C[C@](O)(/C=C/C=C/C=C/C(=O)NC2=C(O)CCC2=O)[C@@H]2O[C@@H]2C1=O | > 40 µM (inactive) | 
Cc1ccc2cc(CNc3ccccc3)c(=O)n(CC(=O)Nc3ccccc3C)c2c1 | > 40 µM (inactive) | 
Cc1nnc2ccc(-c3ccc(NC(=O)c4ccc(Br)o4)cc3)nn12 | > 40 µM (inactive) | 
C=C1C=C(CCC(=O)O)C(=O)OC1/C=C/C=C/C (stereo not drawn) |  | 5.68
CCNS(=O)(=O)c1ccc(-c2ccc(-n3cnnn3)cc2)cc1 | > 40 µM (inactive) | 
COc1ccc(N/C=C/c2onc(C)c2[N+](=O)[O-])c(OC)c1 | > 40 µM (inactive) | 
COC(=O)c1ccccc1NC(=O)Cn1c(=O)n(Cc2ccc(C(=O)NCc3ccco3)cc2)c(=O)c2ccccc21 | > 40 µM (inactive) | 
Cc1ccc(CNC(=O)c2ccc3nn(CC(=O)Nc4ccccc4F)c(=O)n3c2)cc1 | > 40 µM (inactive) | 
CCOc1ccc(-c2noc(-c3nn(-c4cccc(OC)c4)ccc3=O)n2)cc1 |  | 4.47
CCCCCCCCCCCC1=C(O)C(=O)C=C(O)C1=O |  | 5.33
COc1ccc2c(c1)CCc1c-2n[nH]c1C(=O)Nc1cc(C)on1 | > 40 µM (inactive) | 
COc1ccc(C(=O)CSc2nnc(-c3cc4ccccc4o3)n2C)cc1 | > 40 µM (inactive) | 

SMILES | IC50 | pIC50
O=C(O)c1ccccc1C(=O)Nc1ccc(SC(C(=O)Nc2ccccc2Cl)c2ccccc2)cc1 (stereo not drawn) | > 40 µM (inactive) | 
O=C(CNC(=O)c1ccc2nc(-n3cccc3)sc2c1)NCc1ccccc1 | > 40 µM (inactive) | 
Cc1ccc(Nc2nc(Nc3cccc(F)c3)nc3nccnc23)c(C)c1 | > 40 µM (inactive) | 
Cc1cccc(N2C(=O)/C(=C\c3ccc4c(c3)OCCO4)c3ccccc3C2=O)c1 | > 40 µM (inactive) | 
COc1ccc(-n2c(=O)c3ccc(C(=O)NCCc4ccccc4)cc3n(CC(=O)NCCC3=CCCCC3)c2=O)cc1 | > 40 µM (inactive) | 
Cc1c(NC(=O)/C=C/c2cccc(Cl)c2Cl)cccc1-n1cnnn1 | > 40 µM (inactive) | 
O=C(Nc1ccc(C(F)(F)F)cc1)C1CC(=O)N(c2ccc3c(c2)OCCO3)C1 (stereo not drawn) | > 40 µM (inactive) | 
CCC/C=C\C#CC/C=C\CCCCCCCC(=O)O |  | 5.61
Cc1occ2c1C(=O)c1c(O)ccc(O)c1C2 |  | 6.18
Cc1ccc(-c2cc(=O)n(CC(=O)Nc3ccc(C(C)C)cc3)cn2)cc1 | > 40 µM (inactive) | 
COc1ccccc1CNC(=O)C1c2ccccc2C(=O)N1Cc1ccccc1C (stereo not drawn) | > 40 µM (inactive) | 
CC(=O)O[C@@H](C/C=C(\C)C(=O)O)[C@@H](C)[C@H]1C[C@H](OC(C)=O)[C@@]2(C)C3=CC[C@H]4C(C)(C)[C@H](O)CC[C@]4(C)C3=CC[C@]12C | > 40 µM (inactive) | 
Cn1cc(NC(=O)Nc2cccc3ccccc23)c2ccccc21 | > 40 µM (inactive) | 
Cc1ccc(Nc2nc(O)c(CC(=O)Nc3ccc(C)cc3C)s2)cc1 | > 40 µM (inactive) | 
Cc1cccc(C(=O)OCC(=O)Nc2ccc3[nH]c(=O)[nH]c3c2)c1C | > 40 µM (inactive) | 
Cc1ccc(C)c(NC(=O)Cn2cc(C(=O)C3CC3)c3ccccc32)c1 |  | 4.56
COc1ccc(-c2cc3nc([C@H](C)NC(=O)CC4CCCC4)nn3cn2)cc1 | > 40 µM (inactive) | 
N#C/C(=C\c1ccccc1F)c1nnc(N)s1 | > 40 µM (inactive) | 
O=C(Cn1c(=O)c2ccccc2n(CC(=O)Nc2cccc(F)c2)c1=O)NCCc1ccccc1 | > 40 µM (inactive) | 
CCN(CC)C(=O)c1sc(NC(=O)c2cc(-c3ccccc3Cl)nc3ccccc23)c(C(N)=O)c1C | > 40 µM (inactive) | 
CCOc1ccc(C2SCC(=O)Nc3c2c(=O)[nH]n3C2CCCCC2)cc1 (stereo not drawn) | > 40 µM (inactive) | 
Cc1cn2nnc(C(=O)Nc3ccc(OC(F)(F)F)cc3)c2c(=O)[nH]1 | > 40 µM (inactive) | 

SMILES | IC50 | pIC50
CC(C)=CCC[C@H](C(=O)O)[C@@H]1CC[C@]2(C)C3=C(CC[C@@]12C)[C@@]1(C)CCC(=O)C(C)(C)C1CC3 (stereo partly drawn) | > 40 µM (inactive) | 
O=C(CCCc1nnc2c(=O)n(-c3cccc(F)c3)ccn12)Nc1ccccc1 | > 40 µM (inactive) | 
CCOC(=O)N1CCN(C(=O)c2ccc(NCc3ccc(F)cc3)c(S(=O)(=O)Nc3cccc(C(F)(F)F)c3)c2)CC1 | > 40 µM (inactive) | 
O=c1c2ccccc2oc2nc(-c3cccs3)n(-c3ccccc3)c(=O)c12 |  | 5.64
COCCCn1c(C(=O)NCc2ccccc2)cc2c(=O)n3ccccc3nc21 | > 40 µM (inactive) | 
CC1NC(=O)C(CC(N)=O)NC(=O)C(C(C)O)NC(=O)C(Cc2ccc(O)cc2)NC(=O)C(C(C)C)NC(=O)C(NC(=O)CC(O)CCCCCCCCCCCCN=C(N)N)C(C)OC1=O (stereo not drawn) ({Pentadecanoyl(3ξ-OH,15-Gua)}-TVYTNA; ester 1-C; configuration not given here) | > 40 µM (inactive) | 
COc1ccc(CCNC(=O)Cn2c(=O)n(-c3ccc(CC(=O)NCCc4ccccc4)cc3)c(=O)c3ccccc32)cc1OC | > 40 µM (inactive) | 
CSc1nc2ncn(CC(=O)Nc3ccc(Br)cc3)c(=O)c2s1 | > 40 µM (inactive) | 
COc1ccc(CC(=O)Nc2c(NCc3ccccc3)c3ccccc3oc2=O)cc1 |  | 4.42
Cn1c(=O)[nH]c2nncnc2c1=O |  | 4.68
COc1ccc(CNC(=O)C2CCCN(S(=O)(=O)Cc3ccc(Cl)cc3)C2)cc1 (stereo not drawn) | > 40 µM (inactive) | 
CCOc1ccc(CC(=O)Nc2ccc(-c3cn4cccnc4n3)cc2)cc1 | > 40 µM (inactive) | 
Cc1cccc(-c2nnn3c2nc(NCC2CCCO2)c2ccccc23)c1 (stereo not drawn) | > 40 µM (inactive) | 
CC/C=C\C/C=C\C/C=C\CCCCCCCC(=O)O |  | 4.75
CNc1ncc(C(=O)N2CCOC(C(=O)N3CCCCCC3)C2)cn1 (stereo not drawn) | > 40 µM (inactive) | 
Cc1nnc(-c2cc(S(=O)(=O)N3CCN(c4ccc(F)cc4)CC3)c[nH]2)o1 | > 40 µM (inactive) | 
CCc1cc(=O)oc2c(C)c(OCC(=O)NCc3ccccn3)ccc12 | > 40 µM (inactive) | 
c1cncc(-c2cnc3sc(NC4CCCCC4)nn23)c1 | > 40 µM (inactive) | 
COc1cccc2cc(-c3nnc(SCC(=O)c4ccc(F)cc4)n3C)oc12 | > 40 µM (inactive) | 
COc1cc(Cl)c(C)cc1NC(=O)Cn1c(=O)n(CC(=O)NCc2ccco2)c(=O)c2ccccc21 | > 40 µM (inactive) | 
COc1cc(Cl)c(NC(=O)c2cc(-c3ccccn3)n[nH]2)c(OC)c1 | > 40 µM (inactive) | 
CCCCCCC1CCC(O)CC(O)CC(O)CC(O)CC(O)CC(O)/C(C)=C/C=C\C=C/C=C/C=C/[C@H](O)[C@@H](C)OC1=O (stereo partly drawn) | > 40 µM (inactive) | 

SMILES | IC50 | pIC50
CCCCCCCCC/C=C/C(=O)CCc1c(O)c(C=O)c2c(c1O)C(=O)OC2O (stereo not drawn) |  | 6.29
O=C(Cn1c(-c2nc(-c3cccc(F)c3)no2)cccc1=O)NCc1ccco1 | > 40 µM (inactive) | 
Cc1nc2c(nnn2C[C@H]2CCCN2C(=O)c2ccc(F)cc2)c(=O)[nH]1 | > 40 µM (inactive) | 
O=C(COc1ccc(Cl)cc1)Nc1noc(-c2cccs2)n1 | > 40 µM (inactive) | 
COc1ccc(-c2cc3c(=O)n(CC(=O)Nc4ccccc4C)ccn3n2)cc1 | > 40 µM (inactive) | 
COc1ccc(N(CC(=O)NC2CCCCC2)C(=O)c2ccc(-c3ccccc3)[nH]2)cc1OC | > 40 µM (inactive) | 
O=C(NCCc1ccccc1)c1ccc2c(=O)n(Cc3ccco3)c(=O)n(Cc3cccc([N+](=O)[O-])c3)c2c1 |  | 4.81
CN(C)c1ccc(S(=O)(=O)N2CCCCC2)cc1NC(=O)COc1ccccc1 | > 40 µM (inactive) | 
CCN(c1ccc(NC(=O)CSc2nnc(-c3ccccc3)n2-c2ccc(OC)c(OC)c2)cc1)C(C)C | > 40 µM (inactive) | 
O=C(CN1C(=O)c2ccccc2C1=O)Nc1nc(-c2ccc(Br)cc2)cs1 | > 40 µM (inactive) | 
O=C(Nc1ccccc1)[C@@H]1[C@@H]2C(=O)N(c3ccc([N+](=O)[O-])cc3)C(=O)[C@@H]2[C@H]2c3ccccc3C=CN12 |  | 4.47
CCc1ccc(-n2c(C)cc(/C=C3\C(=N)N4N=CSC4=NC3=O)c2C)cc1 | > 40 µM (inactive) | 
O=C(CSc1nc2c(cnn2-c2ccccc2)c(=O)[nH]1)Nc1ccc(Cl)cc1F |  | 4.49
Cc1ccc(C)c(S(=O)(=O)N2CCN(c3ccc4nnc(-c5ccco5)n4n3)CC2)c1 | > 40 µM (inactive) | 
COC(=O)c1ccccc1NC(=O)C1CCCN(c2nnc(-n3cccc3)s2)C1 (stereo not drawn) | > 40 µM (inactive) | 
CCCCCCCCCc1cc(OC(=O)c2c(CCCCCCCCC)cc(O)cc2O[C@@H]2O[C@H](CO)[C@@H](O)[C@H](O)[C@H]2O)cc(O)c1C(=O)O |  | 5.21
O=C(CSc1ccc2nnc(-c3ccc(Cl)cc3)n2n1)N1CCCCC1 | > 40 µM (inactive) | 
CCOC(=O)c1ccc(NC(=O)Cn2c(=O)n(CC(=O)NCc3ccco3)c(=O)c3ccccc32)cc1 | > 40 µM (inactive) | 
COc1ccc(CNC(=O)C(C)n2nc(-c3ccco3)c(-c3cc(C)no3)cc2=O)cc1 (stereo not drawn) | > 40 µM (inactive) | 
Cc1ccccc1NC(=O)CSC1=NC2(CCCCC2)Nc2ccccc21 | > 40 µM (inactive) | 
O=C(Nc1ccc(F)cc1F)c1cc(-c2ccccn2)n[nH]1 | > 40 µM (inactive) | 
N#Cc1cccc(NC(=O)Cn2cccc2-c2nc(-c3ccccc3)no2)c1 | > 40 µM (inactive) | 
